Reference: patent publication US5503988A, “Process for producing a cholesterol-reduced substance” (priority 1992, dated 1996)
Read-outs that look alike come from different tables or passages of the source.

How the values were obtained:
[1] = system: cholesterol oxidase from Botrytis cinerea CO-33; assay type: biochemical
Method: To 0.1 ml of 1 mM cholesterol micelle solution containing 0,33% Triton X-100 is added 0.3 ml of 20 mM phosphate/citrate buffer (pH 6.0), 0.05 ml of the enzyme solution is added to the mixture, and the reaction is carried out at 37° C. for 10 minutes. 0.05 ml of chloroform is added thereto to extract sterol, stopping the reaction.
Cholestenone in the reaction mixture is determined with a TLC/FID IATROSCAN (product to Diayatron Co.). […] The enzyme activity which produces 1 μmol of cholestenone per minute is defined as 1 unit.

[2] = system: epicholesterol dehydrogenase from Mycobacterium sp. EPI-40; assay type: biochemical
Method: With 0.1 ml of a 1 mM epicholesterol micelle solution containing 0.33% Triton X-100 are mixed 0.3 ml of 20 mM Tris-HCl buffer (pH 8.0) containing 1 mM dithiothreitol, 0.1 ml of a 10 mM NAD solution, and 0.01 ml of 50 mM magnesium chloride. 0.05 ml of the enzyme solution is added to the mixture, and the mixture is allowed to stand at 37° C. for 2 hours. 0.05 ml of chloroform is added and sterol is extracted to stop the reaction.
Cholestenone produced in the reaction mixture is determined with high performance liquid chromatography. A quantitative determination is made using an ODS column (Inertsil ODS-2 column, 4.6×250 mm, product of GL Science Co.), using methanol as the mobile phase. […] The enzyme activity which produces 1 μmol of cholestenone per minute is defined as 1 unit.

SMILES | residual activity (activity without inhibitor defined as 100%) ([1]; pH 6) [%] | residual activity (activity without inhibitor defined as 100%) ([2]; pH 8) [%] | residual activity (activity without inhibitor defined as 100%) ([1]; 1 mM inhibitor added, reaction for 10 minutes at pH 6.0, 37° C.) [%] | residual activity (activity without inhibitor defined as 100%) ([2]; 1 mM inhibitor added, allowed to stand 2 hours at pH 8.0, 37° C.) [%]
O=C(O)CN(CCN(CC(=O)O)CC(=O)O)CC(=O)O [ethylenediamine tetraacetate] | 93 | 71 | – | –
O=C(O)CI [iodoacetic acid] | 89 | 67 | – | –
O=S(=O)(O)c1cc[c]([Hg][Cl])cc1 [p-chloromercury phenylsulfonate] | – | – | 100 | 7
